# According to PMC6155227 (Molecules : A Journal of Synthetic Chemistry and Natural …, 2017):
# Legend:
# avian influenza virus = conditions: mouse, in vivo; cited from earlier work
# [1] = system: H5N1(A/Vietnam/1203/2004) strain; experiment: microbe, parasite or virus in culture; assay type: cell-based, influenza virus A/Vietnam/1203/2004 (H5N1); conditions: Influenza A virus, H5N1, MDCK
# MDCK cells = conditions: dog
# [2] = system: porcine reproductive and respiratory syndrome virus (PRRSV); conditions: cited from earlier work
compound,measurement,setting,value
"CCCC(=O)c1c(O)c(CC2=C(O)C(C)(C)C(O)=C(C(C)=O)C2=O)c(O)c(Cc2c(O)c(CC3=C(O)C(C)(C)C(O)=C(C(C)=O)C3=O)c(O)c(C(=O)CCC)c2O)c1O [Dryocrassin ABBA, dryocrassin ABBA]",protection of infected mice,avian influenza virus,protect mice infected with avian influenza virus
same,EC50,"[1]; 72 h, read-out: EC50 anti-influenza virus activity",16.6 µM
same,50% toxicity concentration (TC50),MDCK cells,greater than 400 μM
"CCCC(=O)c1c(O)c(CC2=C(O)C(C)(C)C(O)=C(C(C)=O)C2=O)c(O)c(CC2=C(O)C(C)(C)C(O)=C(C(C)=O)C2=O)c1O [Filixic acid ABA, filixic acid ABA]",inhibition at 100 µM,[1]; read-out: inhibition rate,< 50%
same,maximal non-cytotoxic concentration,MDCK cells,100 µM
"CCCC(=O)c1c(O)c(C)c(O)c(CC2=C(O)C(C)(C)C(O)=C(C(C)=O)C2=O)c1O [Flavaspidic acid AB, flavaspidic acid AB]",virus replication,[2],inhibit replication
